Tests used:
[1] = Effect on normal functioning of the cardiovascular system (earlier work of the inventors); conditions: even in strong concentrations
[2] = Cytotoxicity of the compound itself (statement, no method)
rat cardiomyocytes = test: Rat cardiomyocyte culture with or without doxorubicin, cell suffering by LDH assay; type: cell-based; conditions: 48 hours
Procedure: The effects of 3-(R)-[3-(2-methoxyphenylthio)-2-(S)-methyl-propyl]amino-3,4-dihydro-2H-1,5-benzoxathiepine were assessed in the following cell model: rat cardiomyocytes were placed in culture either in the presence or in the absence of doxorubicin. After 48 hours, cell suffering was quantified by assay of the concentration of lactate dehydrogenase (LDH); LDH is […].

| Structure (SMILES) | Effect on normal functioning of the cardiovascular system [1] | Cytotoxicity [2] | Effect on the toxic effects of doxorubicin / viability of cardiomyocytes (LDH) (rat cardiomyocytes; compound at 10 μM, with doxorubicin) | Effect on viability of cardiomyocytes (LDH) (rat cardiomyocytes; doxorubicin at 1 and 10 μM, comparable with Triton X-100) |
| --- | --- | --- | --- | --- |
| COc1ccccc1SC[C@@H](C)CN[C@@H]1COc2ccccc2SC1 [3-(R)-[3-(2-methoxyphenylthio)-2-(S)-methyl-propyl]amino-3,4-dihydro-2H-1,5-benzoxathiepine] | does not affect the normal functioning of the cardiovascular system | not cytotoxic | significantly reduces the toxic effects of doxorubicin | – |
| COc1cccc2c1C(=O)c1c(O)c3c(c(O)c1C2=O)C[C@@](O)(C(=O)CO)C[C@@H]3O[C@H]1C[C@H](N)[C@H](O)[C@H](C)O1 [doxorubicin, reference compound] | – | – | – | significantly affects the viability of cardiomyocytes |
